According to PubChem BioAssay (NCI):
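Briefly, cells in 96-well plates were exposed to five compound concentrations for 48 h, and endpoints were estimated by linear interpolation. GI50: concentration for 50% inhibition of growth. TGI: concentration producing complete growth inhibition.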

Assays:
Experiment in all cases: NCI anticancer screen, dose series, 48 h
NCI-H23 lung = tested on: NCI-H23 lung
OVCAR-8 ovarian = tested on: OVCAR-8 ovarian
HOP-62 NSCLC = tested on: HOP-62 NSCLC
NCI/ADR-RES ovarian = tested on: NCI/ADR-RES ovarian
SK-MEL-5 melanoma = tested on: SK-MEL-5 melanoma
COLO 205 colon = tested on: COLO 205 colon
MCF7 breast = tested on: MCF7 breast
A498 renal = tested on: A498 renal
EKVX NSCLC = tested on: EKVX NSCLC
HCC-2998 colon = tested on: HCC-2998 colon

| SMILES | GI50 (NCI-H23 lung) [µM] | TGI (NCI-H23 lung) [µM] | GI50 (OVCAR-8 ovarian) [µM] | TGI (OVCAR-8 ovarian) [µM] | GI50 (HOP-62 NSCLC) [µM] | TGI (HOP-62 NSCLC) [µM] | GI50 (NCI/ADR-RES ovarian) [µM] | TGI (NCI/ADR-RES ovarian) [µM] | GI50 (SK-MEL-5 melanoma) [µM] | TGI (SK-MEL-5 melanoma) [µM] | GI50 (COLO 205 colon) [µM] | TGI (COLO 205 colon) [µM] | GI50 (MCF7 breast) [µM] | TGI (MCF7 breast) [µM] | GI50 (A498 renal) [µM] | TGI (A498 renal) [µM] | GI50 (EKVX NSCLC) [µM] | TGI (EKVX NSCLC) [µM] | TGI (HCC-2998 colon) [µM] | GI50 (HCC-2998 colon) [µM] |
| --- | --- | --- | --- | --- | --- | --- | --- | --- | --- | --- | --- | --- | --- | --- | --- | --- | --- | --- | --- | --- |
| O=C(Nc1cccc(Cl)c1Cl)c1cccc(NC2=C(Cl)C(=O)N(Cc3ccccc3)C2=O)c1 | 41.4 | > 100 | 9.47 | 42 | > 100 | > 100 | 12.6 | 62.5 | 20.1 | > 100 | > 100 | > 100 | 11.3 | > 100 | 36.1 | > 100 | 34.2 | 89.2 |  |  |
| CN=NN(C)C(=O)NC |  | > 100 |  | > 100 |  | > 100 |  |  |  | > 100 |  | > 100 |  |  |  | > 100 |  |  | > 100 |  |
| COc1ccc(C(=O)C(CO)Oc2ccccc2OC)cc1OC (stereo unspecified) |  | > 100 |  | > 100 |  | > 100 |  |  |  | > 100 |  | > 100 |  |  |  | > 100 |  | > 100 | > 100 |  |
| COc1cc(/C=C2\C(=O)Nc3ccc(F)cc32)cc(OC)c1OC | 24 | > 100 | 64.2 | > 100 | 35.8 | > 100 | 18.9 | > 100 | 17.3 | > 100 | 62.7 | > 100 | 4.73 | > 100 | 54 | > 100 | 33.1 | > 100 |  |  |
| COC(=O)/C=C/C1C(C(=O)OC)C2(C(=O)OC)CCC1(C(=O)OC)N2 (stereo unspecified) |  | > 100 |  | > 100 |  | > 100 |  |  |  | > 100 |  | > 100 |  |  |  | > 100 |  | > 100 | > 100 |  |
| CC1=C(C(=O)Nc2c(C)cccc2C)C(c2ccccc2Cl)C(C(=O)Nc2c(C)cccc2C)=C(C)N1 |  | > 100 |  | > 100 |  | > 100 |  |  |  | > 100 |  | > 100 |  |  |  | > 100 |  | > 100 | > 100 |  |
| N#C/C(=C\c1ccc(O)c(O)c1)C(N)=O |  | 93.8 |  | > 100 |  | > 100 |  |  |  |  |  | > 100 |  |  |  | > 100 |  | > 100 | > 100 |  |
| CCCCCCCCCc1cc(=O)c2c(O)cccc2o1 |  | > 100 |  | > 100 |  | > 100 |  |  |  | 46.6 |  | > 100 |  |  |  |  |  | > 100 | > 100 |  |
| O=C(CSc1nnc(-c2ccccc2NC(=O)C(F)(F)F)c(=O)[nH]1)NC(=O)Nc1ccccc1 |  | > 100 |  | > 100 |  | > 100 |  |  |  |  |  | > 100 |  |  |  |  |  | > 100 | > 100 |  |
| CC(=O)OCC1OC([S-])C(OC(C)=O)C(OC(C)=O)C1OC(C)=O.CC[PH+](CC)CC.CC[PH+](CC)CC.[Au].[Au] (stereo unspecified) | 0.245 | 1.07 | 0.371 | 1.52 | 1.23 | 2.56 |  |  | 0.132 | 0.346 | 0.198 | 0.391 |  |  |  |  | 0.405 | 0.921 | 1.95 | 0.801 |
| CCN(CC)CC(C)(C)C(=O)/C=C/c1ccc(Cl)c(Cl)c1 | 1.9 | 4.17 | 1.88 | 3.91 | 1.75 | 3.29 |  |  | 1.84 | 3.29 | 1.7 | 3.34 | 0.959 | 2.8 | 1.63 | 3.55 | 1.69 | 3.1 | 3.08 | 1.61 |
| CCOC(=O)C1N(S(=O)(=O)c2ccc(C)cc2)CCC12C(c1ccc(OC)cc1)NC1CCCCC12 (stereo unspecified) |  | > 100 |  | > 100 |  | > 100 |  |  |  | > 100 |  | > 100 |  |  |  | > 100 |  | > 100 | > 100 |  |
| CCOC(=O)[C@H](CCCNC(=O)OC(C)(C)C)NCc1ccc(OC)c(OC)c1 |  | > 100 |  | > 100 |  | > 100 |  |  |  | > 100 |  | > 100 |  |  |  | > 100 |  | > 100 | > 100 |  |
| N#CC(/C(=N/NC(=O)C(=O)NN)C(=O)NC12CC3CC(CC(C3)C1)C2)c1ccccc1 (stereo unspecified) |  | > 100 |  | > 100 |  | > 100 |  |  |  | > 100 |  | > 100 |  |  |  | > 100 |  | > 100 | > 100 |  |
| CC(C)(C)N1CC2(CCCCC2)C1=O |  | > 100 |  | > 100 |  | > 100 |  |  |  | > 100 |  | > 100 |  |  |  | > 100 |  | > 100 | > 100 |  |
| COc1c(C)c2c(c(C)c1Cl)Oc1c(C=O)c(O)c(Cl)c(C)c1C(=O)O2 |  | 45.2 |  | > 100 |  | 93.7 |  |  |  | > 100 |  | 66.4 |  |  |  | 58.8 |  | 46.2 | 69.8 |  |
| O=C1c2ccn(CCCCNC(CO)(CO)CO)c2C(=O)c2c1c(O)c1ccccc1c2O | 3.01 | 7.78 | 2.17 | 11.4 | 3.82 | 8.77 | 16.3 | 42.3 | 5.21 | 53.1 | 0.912 | > 23.6 |  |  | 16.5 | 46.8 | 24.8 | 74 | 0.515 | 0.17 |
| CC(=O)Oc1ccccc1C(=O)N=C1[Se]CCN1C(=O)c1ccccc1OC(C)=O | 1.56 | 5.43 | 0.637 | 2.7 | 0.546 | 1.88 |  |  | 0.566 | 2.05 | 1.84 | 4.07 | 1.12 | 5.06 | 1.02 | 2.4 |  |  | 5.79 | 2.15 |
| Cc1cccc(NC(=O)/C=C/c2ccc(N(CCC#N)CCC#N)cc2C)c1 |  | > 100 |  | > 100 |  | > 100 |  |  |  | > 100 |  | > 100 |  |  |  | > 100 |  | > 100 | > 100 |  |
